We go through eight compounds from patent publication EP0289070A1, “Tertiary arylethyl amine derivatives having opiate-antagonistic activity” (DUPHAR INTERNATIONAL RESEARCH B.V, priority 1987, dated 1988).

Experiment [1] addresses cholinergic muscarine receptors. Format: binding, rat.
Experiment [2] concerns the target (mainly u.-type) opiate receptors (Rattus norvegicus, UniProt P33535). The experiment in a line: Affinity to opiate receptors: [3H]-naloxone displacement in rat brain homogenates. It counts as binding.
Where [3] appears, read: [^3H] QNB displacement expressed in Ki; homogenates of rat brains; read-out: Affinity to muscarine receptors 2).

Structures are written as SMILES. Read-outs that look alike come from different tables or passages of the source.

Chain of (mainly u.-type) opiate receptors (P33535 whole entry): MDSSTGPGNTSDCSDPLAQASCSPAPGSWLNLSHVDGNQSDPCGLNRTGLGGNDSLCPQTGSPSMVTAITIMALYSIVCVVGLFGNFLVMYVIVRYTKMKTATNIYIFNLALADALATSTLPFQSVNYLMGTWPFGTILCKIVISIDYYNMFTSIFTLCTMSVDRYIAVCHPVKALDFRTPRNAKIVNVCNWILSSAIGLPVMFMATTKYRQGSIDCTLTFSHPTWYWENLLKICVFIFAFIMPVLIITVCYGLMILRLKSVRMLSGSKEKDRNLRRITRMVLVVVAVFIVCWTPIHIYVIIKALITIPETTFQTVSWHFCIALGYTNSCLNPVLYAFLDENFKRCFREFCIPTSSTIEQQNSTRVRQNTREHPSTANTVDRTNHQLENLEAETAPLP

On to `CCCN(CCCC(=O)C1CCCCC1)C(C)Cc1ccc(O)cc1` (racemic) [a], for which the Ki in experiment [1] (setting [3]) came to 5.2 nM.

As to `CCN(CCCC(=O)C1CCCCC1)C(C)Cc1ccc(O)cc1` (racemic) [b], the Ki in experiment [1] (setting [3]) is 9.6 nM.

Regarding `CCCC(=O)CCCN(CC)C(C)Cc1ccc(OC)cc1` (racemic) [e, reference compound], the Ki in experiment [1] (setting [3]) amounted to 28 nM.

On to `CCN(CCCC(=O)C1CCCCC1)C(C)Cc1ccc(Cl)cc1` (racemic) [f, reference compound], for which the Ki in experiment [1] (setting [3]) worked out at 8.3 nM.

Turning to `CCN(CCCC(=O)C1CCCCC1)C(C)Cc1ccc(OC)cc1` (racemic) [g, reference compound], in experiment [1] (setting [3]), the Ki amounted to 2.7 nM.

For `CN1[C@@H]2CC[C@H]1C[C@@H](OC(=O)C(CO)c1ccccc1)C2` (stereo partly shown) [atropine, reference compound], in experiment [1] (read-out: Affinity to muscarine receptors 2)), the Ki turned out to be 1.4 nM.

`CCN(CCCC(=O)C1CCCCC1)[C@H](C)Cc1ccc(O)cc1` [c]: the opiate-antagonistic activity entry in experiment [2] is “found substantially entirely in the R isomer”. Further, the Ki in experiment [1] (setting [3]) was determined as 450 nM.

For the compound `CCN(CCCC(=O)C1CCCCC1)[C@@H](C)Cc1ccc(O)cc1` [d], in experiment [1] (setting [3]), the Ki was determined as 4.1 nM. Further, the muscarinolytic activity result in experiment [1] (pure R and S isomers of racemic compound b compared) is given as “found substantially exclusively in the S isomer”.
